Experimental data published in the supplement of paper PMC6045584.
± gives the standard deviation of the averaged measurements.

Legend:
CANERTINIB [1] = compound: T1, C=CC(=O)Nc1cc2c(Nc3ccc(F)c(Cl)c3)ncnc2cc1OCCCN1CCOCC1 [CANERTINIB]; assay: surviving fraction relative to DMSO-only wells; higher = less growth inhibition; settings: exposure time: 5 days
Method in brief: (§1)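 Surviving fraction was calculated by normalising CellTiter-Glo luminescence to the median of DMSO-only wells. Tumour cell lines in log phase were seeded in 384-well plates at 250–500 cells per well, and 24 hours later were exposed continuously for five days to inhibitors at 0.5, 1, 5, 10, 50, 100, 500 and 1000 nM.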

SNX-5422 [2] = compound: T2, CC1(C)CC(=O)c2c(C(F)(F)F)nn(-c3ccc(C(N)=O)c(N[C@H]4CC[C@H](OC(=O)CN)CC4)c3)c2C1 [SNX-5422]; assay: as above; settings: exposure time: 5 days
Method in brief: as §1

SAPACITABINE [3] = compound: T3, CCCCCCCCCCCCCCCC(=O)Nc1ccn([C@@H]2O[C@H](CO)[C@@H](O)[C@@H]2C#N)c(=O)n1 [SAPACITABINE]; assay: as above; settings: exposure time: 5 days
Method in brief: as §1

BI-2536 [4] = compound: T4, CC[C@@H]1C(=O)N(C)c2cnc(Nc3ccc(C(=O)NC4CCN(C)CC4)cc3OC)nc2N1C1CCCC1 [BI-2536]; assay: as above; settings: exposure time: 5 days
Method in brief: as §1

AFATINIB [5] = compound: T5, CN(C)C/C=C/C(=O)Nc1cc2c(Nc3ccc(F)c(Cl)c3)ncnc2cc1O[C@H]1CCOC1 [AFATINIB]; assay: as above; settings: exposure time: 5 days
Method in brief: as §1

MDV3100 = compound: CNC(=O)c1ccc(N2C(=S)N(c3ccc(C#N)c(C(F)(F)F)c3)C(=O)C2(C)C)cc1F [MDV3100]; assay: as above; settings: exposure time: 5 days
Method in brief: as §1

[6] = compound: Cn1cc(C2=Nc3cc(NC(=O)C(N)C4CCCCC4)cc4c3C2=CNNC4=O)cn1; assay: as above; settings: exposure time: 5 days
Method in brief: as §1

TIOGUANINE [7] = compound: T6, Nc1nc2[nH]cnc2c(=S)[nH]1 [TIOGUANINE]; assay: as above; settings: exposure time: 5 days
Method in brief: as §1

CANERTINIB [8] = compound: T1, CANERTINIB; assay: area under dose-response curve of surviving fraction (unscaled, Aref=0) (surviving fraction x log10(nM)); higher = more resistant; settings: exposure time: 5 days; dose range 0.5-1000 nM
Method in brief: (§2)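 Inhibitor was applied to tumour cell lines at eight concentrations (0.5 to 1000 nM) for five days in 384-well plates. Luminescence from CellTiter-Glo, scaled to DMSO-only wells, gave surviving fractions in three screens per line, and these were fitted by 3-parameter logistic regression with the drc R package. The area under the curve is an unscaled activity area. Aref was 0, and dose was on a log10 scale.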

SNX-5422 [9] = compound: T2, SNX-5422; assay: as above; settings: exposure time: 5 days; dose range 0.5-1000 nM
Method in brief: as §2

SAPACITABINE [10] = compound: T3, SAPACITABINE; assay: as above; settings: exposure time: 5 days; dose range 0.5-1000 nM
Method in brief: as §2

BI-2536 [11] = compound: T4, BI-2536; assay: as above; settings: exposure time: 5 days; dose range 0.5-1000 nM
Method in brief: as §2

AFATINIB [12] = compound: T5, AFATINIB; assay: as above; settings: exposure time: 5 days; dose range 0.5-1000 nM
Method in brief: as §2

[13] = compound: Cn1cc(C2=Nc3cc(NC(=O)C(N)C4CCCCC4)cc4c3C2=CNNC4=O)cn1; assay: as above; settings: exposure time: 5 days; dose range 0.5-1000 nM
Method in brief: as §2

TIOGUANINE [14] = compound: T6, TIOGUANINE; assay: as above; settings: exposure time: 5 days; dose range 0.5-1000 nM
Method in brief: as §2

SKBR3 BREAST was tested, and the surviving fraction (CANERTINIB [1]; 0.5 nM) was 0.831 ± 0.019, the surviving fraction (CANERTINIB [1]; 1 nM) was 0.79 ± 0.017 and the surviving fraction (CANERTINIB [1]; 5 nM) was 0.68 ± 0.051. For the same test system, the surviving fraction (CANERTINIB [1]; 10 nM) was 0.6073 ± 0.0035, the surviving fraction (CANERTINIB [1]; 50 nM) was 0.48 ± 0.025 and the surviving fraction (CANERTINIB [1]; 100 nM) was 0.4 ± 0.024. For the same test system, the surviving fraction (CANERTINIB [1]; 500 nM) was 0.224 ± 0.0067, the surviving fraction (CANERTINIB [1]; 1000 nM) was 0.176 ± 0.0098 and the surviving fraction (SNX-5422 [2]; 0.5 nM) was 0.866 ± 0.051. The surviving fraction (SNX-5422 [2]; 1 nM) was 0.932 ± 0.25, the surviving fraction (SNX-5422 [2]; 5 nM) was 0.93 ± 0.068 and the surviving fraction (SNX-5422 [2]; 10 nM) was 0.841 ± 0.051. For the same test system, the surviving fraction (SNX-5422 [2]; 50 nM) was 0.439 ± 0.024, the surviving fraction (SNX-5422 [2]; 100 nM) was 0.432 ± 0.035 and the surviving fraction (SNX-5422 [2]; 500 nM) was 0.192 ± 0.01. It also gave a surviving fraction (SNX-5422 [2]; 1000 nM) of 0.181 ± 0.002, a surviving fraction (SAPACITABINE [3]; 0.5 nM) of 0.873 ± 0.076 and a surviving fraction (SAPACITABINE [3]; 1 nM) of 0.696 ± 0.054. It also gave a surviving fraction (SAPACITABINE [3]; 5 nM) of 0.756 ± 0.012, a surviving fraction (SAPACITABINE [3]; 10 nM) of 0.828 ± 0.046 and a surviving fraction (SAPACITABINE [3]; 50 nM) of 0.791 ± 0.15. The surviving fraction (SAPACITABINE [3]; 100 nM) was 0.572 ± 0.096, the surviving fraction (SAPACITABINE [3]; 500 nM) was 0.386 ± 0.084 and the surviving fraction (SAPACITABINE [3]; 1000 nM) was 0.391 ± 0.051. For the same test system, the surviving fraction (BI-2536 [4]; 0.5 nM) was 0.914 ± 0.12, the surviving fraction (BI-2536 [4]; 1 nM) was 0.363 ± 0.043 and the surviving fraction (BI-2536 [4]; 5 nM) was 0.158 ± 0.026. It also gave a surviving fraction (BI-2536 [4]; 10 nM) of 0.189 ± 0.02, a surviving fraction (BI-2536 [4]; 50 nM) of 0.255 ± 0.063 and a surviving fraction (BI-2536 [4]; 100 nM) of 0.356 ± 0.045. For the same test system, the surviving fraction (BI-2536 [4]; 500 nM) was 0.321 ± 0.018, the surviving fraction (BI-2536 [4]; 1000 nM) was 0.301 ± 0.025 and the surviving fraction (AFATINIB [5]; 0.5 nM) was 0.866 ± 0.033. It also gave a surviving fraction (AFATINIB [5]; 1 nM) of 0.699 ± 0.049, a surviving fraction (AFATINIB [5]; 5 nM) of 0.322 ± 0.015 and a surviving fraction (AFATINIB [5]; 10 nM) of 0.265 ± 0.013. It also gave a surviving fraction (AFATINIB [5]; 50 nM) of 0.167 ± 0.011, a surviving fraction (AFATINIB [5]; 100 nM) of 0.131 ± 0.007 and a surviving fraction (AFATINIB [5]; 500 nM) of 0.119 ± 0.0076. The surviving fraction (AFATINIB [5]; 1000 nM) was 0.122 ± 0.006, the surviving fraction (MDV3100; 0.5 nM) was 1.02 ± 0.093 and the surviving fraction (MDV3100; 1 nM) was 1.09 ± 0.12. For the same test system, the surviving fraction (MDV3100; 5 nM) was 1.11 ± 0.069, the surviving fraction (MDV3100; 10 nM) was 1.1 ± 0.17 and the surviving fraction (MDV3100; 50 nM) was 1 ± 0.11. For the same test system, the surviving fraction (MDV3100; 100 nM) was 1.052 ± 0.0065, the surviving fraction (MDV3100; 500 nM) was 0.971 ± 0.046 and the surviving fraction (MDV3100; 1000 nM) was 1.09 ± 0.18. For the same test system, the surviving fraction ([6]; 0.5 nM) was 0.927 ± 0.058, the surviving fraction ([6]; 1 nM) was 0.948 ± 0.086 and the surviving fraction ([6]; 5 nM) was 0.989 ± 0.088. The surviving fraction ([6]; 10 nM) was 1 ± 0.073, the surviving fraction ([6]; 50 nM) was 0.736 ± 0.056 and the surviving fraction ([6]; 100 nM) was 0.459 ± 0.064. It also gave a surviving fraction ([6]; 500 nM) of 0.206 ± 0.011, a surviving fraction ([6]; 1000 nM) of 0.224 ± 0.024 and a surviving fraction (TIOGUANINE [7]; 0.5 nM) of 1.03 ± 0.087. It also gave a surviving fraction (TIOGUANINE [7]; 1 nM) of 0.956 ± 0.13, a surviving fraction (TIOGUANINE [7]; 5 nM) of 0.946 ± 0.13 and a surviving fraction (TIOGUANINE [7]; 10 nM) of 1.04 ± 0.17. It also gave a surviving fraction (TIOGUANINE [7]; 50 nM) of 1.11 ± 0.11, a surviving fraction (TIOGUANINE [7]; 100 nM) of 0.939 ± 0.03 and a surviving fraction (TIOGUANINE [7]; 500 nM) of 1.08 ± 0.17. The surviving fraction (TIOGUANINE [7]; 1000 nM) was 1.05 ± 0.045, the “area under dose-response curve” value (CANERTINIB [8]) was 1.75 and the “area under dose-response curve” value (SNX-5422 [9]) was 2.08. The “area under dose-response curve” value (SAPACITABINE [10]) was 2.23, the “area under dose-response curve” value (BI-2536 [11]) was 0.991 and the “area under dose-response curve” value (AFATINIB [12]) was 0.986. The “area under dose-response curve” value [13] was 2.39 and the “area under dose-response curve” value (TIOGUANINE [14]) was 3.36.
